In ChEMBL document CHEMBL1201862, “PubChem BioAssay data set” (2004):
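Cells were grown in 96-well plates and exposed to each compound for 48 hours at five concentrations; endpoints were interpolated linearly between bracketing concentrations, or set to the highest concentration if not reached. At the GI50, growth is halved.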 Activity calls are given as the source filed them. Rule as the data show it: active = GI50 up to about 1.1 µM and inactive = higher. Numbered stars: 1 amine (or outer) side, 2 acyl side, 3 side chain; on linkers, the order of the positions; unused ones are H or OH. Bridge positions count the residues as written; N and C are the ends. Square brackets hold non-standard residues; d marks the D form. Peptide text beside a SMILES is read from it. X58 = COc1c(N[*:1])cccc1C(=O)O[C@H](C(=O)[C@H](C)C(=O)[*:2])C(C)C; X57 = CC(C)C[C@H](C(=O)[*:2])C(C)C(=O)C1CCCN1[*:1]; NMeY = CN[C@@H](Cc1ccc(O)cc1)C(=O)O; Lac = C[C@H](O)C(=O)O

What was measured:
Experiment in all cases: DTP human tumour cell line panel, 48 h
HCC 2998 = tested on: HCC 2998
HCT-116 = tested on: HCT-116
Hs-578T = tested on: Hs-578T
MDA-MB-435 = tested on: MDA-MB-435
MDA-N = tested on: MDA-N
NCI-H23 = tested on: NCI-H23
RPMI-8226 = tested on: RPMI-8226
SF-268 = tested on: SF-268
SF-295 = tested on: SF-295
SK-MEL-2 = tested on: SK-MEL-2
SK-MEL-5 = tested on: SK-MEL-5
SN12C = tested on: SN12C
SNB-75 = tested on: SNB-75
SR = tested on: SR
U-251 = tested on: U-251
UACC-62 = tested on: UACC-62
CCRF-CEM = tested on: CCRF-CEM

Measured: GI50

CN(C)S(=O)(=O)Nc1ccccn1
inactive: HCC 2998 > 100 µM | HCT-116 > 100 µM | Hs-578T > 100 µM | MDA-MB-435 > 100 µM | MDA-N > 100 µM | NCI-H23 > 100 µM | RPMI-8226 > 100 µM | SF-268 > 100 µM | SF-295 > 100 µM | SK-MEL-2 > 100 µM | SK-MEL-5 > 100 µM | SN12C > 100 µM | SNB-75 > 100 µM | SR > 100 µM | U-251 > 100 µM | UACC-62 > 100 µM

O=C(O)C(Sc1ccc(Cl)cc1)Sc1ccc(Cl)cc1
inactive: CCRF-CEM 28.6 µM | HCC 2998 25.6 µM | HCT-116 35.2 µM | Hs-578T 38.3 µM | MDA-MB-435 43.1 µM | MDA-N 41.5 µM | NCI-H23 44.2 µM | RPMI-8226 31.6 µM | SF-268 48.9 µM | SF-295 46.9 µM | SK-MEL-2 26.3 µM | SK-MEL-5 35.6 µM | SN12C 47 µM | SNB-75 89.7 µM | SR 39.6 µM | U-251 36.4 µM | UACC-62 27.7 µM

Cc1ncc([N+](=O)[O-])n1CCN=[N+]=[N-]
inactive: HCT-116 > 100 µM | Hs-578T > 100 µM | MDA-MB-435 > 100 µM | MDA-N > 100 µM | NCI-H23 > 100 µM | RPMI-8226 > 100 µM | SF-268 > 100 µM | SF-295 > 100 µM | SK-MEL-2 > 100 µM | SK-MEL-5 > 100 µM | SN12C > 100 µM | SNB-75 > 100 µM | SR > 100 µM | U-251 > 100 µM | UACC-62 > 100 µM

O=C(Nc1nc(C23CC4CC(CC(C4)C2)C3)cs1)c1cc2cc(Cl)ccc2oc1=O
inactive: CCRF-CEM > 100 µM | HCC 2998 > 100 µM | HCT-116 > 100 µM | Hs-578T 71.1 µM | MDA-MB-435 > 100 µM | MDA-N > 100 µM | NCI-H23 > 100 µM | RPMI-8226 > 100 µM | SF-268 > 10 µM | SF-295 > 100 µM | SK-MEL-5 > 100 µM | SN12C > 100 µM | SNB-75 > 100 µM | SR > 100 µM | U-251 > 100 µM

COc1ccccc1C(C1=C(O)COC1=O)c1cc2c(cc1OC(C)=O)OCO2 (configuration not stated)
inactive: CCRF-CEM > 100 µM | HCC 2998 > 100 µM | HCT-116 > 100 µM | Hs-578T > 100 µM | MDA-MB-435 > 100 µM | MDA-N > 100 µM | NCI-H23 > 100 µM | RPMI-8226 > 100 µM | SF-268 > 100 µM | SF-295 > 100 µM | SK-MEL-5 > 100 µM | SN12C > 100 µM | SNB-75 > 100 µM | SR > 100 µM | U-251 > 100 µM | UACC-62 > 100 µM

N#C/C(=C\c1ccc(F)cc1)c1nc2ccccc2c(=O)[nH]1
inactive: CCRF-CEM > 100 µM | HCC 2998 > 100 µM | HCT-116 > 100 µM | Hs-578T 79.6 µM | MDA-MB-435 > 100 µM | MDA-N > 100 µM | RPMI-8226 > 100 µM | SF-268 58.6 µM | SF-295 > 100 µM | SK-MEL-2 > 100 µM | SN12C > 100 µM | SNB-75 25.9 µM | SR > 100 µM | U-251 70.6 µM | UACC-62 > 100 µM

N#Cc1c(N)c2c(c(-c3ccccc3)c1-c1ccccc1)C(=O)N(NC(=O)c1ccccc1)C2=O
inactive: CCRF-CEM 42.3 µM | HCC 2998 > 100 µM | HCT-116 19.6 µM | Hs-578T 90.6 µM | MDA-MB-435 74.3 µM | MDA-N 72.6 µM | RPMI-8226 31.2 µM | SF-268 > 100 µM | SF-295 > 100 µM | SK-MEL-2 > 100 µM | SK-MEL-5 68.7 µM | SN12C > 100 µM | SNB-75 > 100 µM | SR 44.5 µM | U-251 > 100 µM | UACC-62 75.9 µM

C/C(C=O)=C/[C@@]1(C)O[C@@H](C)[C@@](C)(O)[C@@H]1O
inactive: CCRF-CEM 36.9 µM | HCC 2998 17.4 µM | HCT-116 93.1 µM | Hs-578T 49.5 µM | MDA-MB-435 31 µM | MDA-N 44.3 µM | NCI-H23 33.3 µM | RPMI-8226 30.9 µM | SF-268 25.2 µM | SF-295 41.1 µM | SK-MEL-2 80.5 µM | SK-MEL-5 64.6 µM | SN12C 32.5 µM | SR 2.58 µM | U-251 > 100 µM | UACC-62 43.7 µM

COC(=O)/C=C/c1ccc2c(c1)CC1(C2)Cc2cc3c(cc2C1=O)CCC3 (configuration not stated)
inactive: CCRF-CEM > 100 µM | HCC 2998 > 100 µM | HCT-116 15.7 µM | Hs-578T 25.2 µM | MDA-MB-435 > 100 µM | MDA-N > 100 µM | RPMI-8226 15 µM | SF-268 46.2 µM | SF-295 34.1 µM | SK-MEL-2 > 100 µM | SK-MEL-5 74.8 µM | SN12C > 100 µM | SNB-75 24.9 µM | SR 44.1 µM | U-251 26.5 µM | UACC-62 > 100 µM

CCOC(=O)c1c(SCCCN2CCCCC2)n(-c2ccccc2)c(=S)n(-c2ccccc2)c1=O
inactive: CCRF-CEM 15.3 µM | HCC 2998 17.3 µM | HCT-116 12.4 µM | Hs-578T 20.9 µM | MDA-MB-435 15.8 µM | MDA-N 15 µM | NCI-H23 18.6 µM | RPMI-8226 6.67 µM | SF-268 37.5 µM | SK-MEL-2 16.7 µM | SK-MEL-5 16.4 µM | SN12C 16.2 µM | SR 22 µM | U-251 16.9 µM | UACC-62 4.28 µM

C/C=C1\CN2CCC34c5ccccc5N(C)C35OCC4(C(=O)OC)C1CC25 (configuration not stated)
inactive: CCRF-CEM 42.7 µM | HCC 2998 14 µM | HCT-116 36.6 µM | Hs-578T 54.8 µM | MDA-MB-435 38.7 µM | MDA-N 46.5 µM | NCI-H23 56.9 µM | RPMI-8226 24.7 µM | SF-268 > 100 µM | SF-295 34.4 µM | SK-MEL-2 42.2 µM | SK-MEL-5 18.4 µM | SN12C 75.7 µM | SNB-75 99.5 µM | SR 26.2 µM | U-251 93.3 µM | UACC-62 61 µM

Cc1ccc(/C=C2\N=C(N3CCCCC3)NC2=O)cc1
inactive: CCRF-CEM > 100 µM | HCC 2998 58.1 µM | HCT-116 > 100 µM | Hs-578T 70.8 µM | MDA-MB-435 > 100 µM | MDA-N > 100 µM | NCI-H23 > 100 µM | RPMI-8226 60.8 µM | SF-268 98.6 µM | SF-295 > 100 µM | SK-MEL-2 > 100 µM | SN12C > 100 µM | SR > 100 µM | U-251 > 100 µM | UACC-62 > 100 µM

N#C/C=C\c1ccc(-c2cc(C(F)(F)F)cc(C(F)(F)F)c2)o1
inactive: CCRF-CEM 47 µM | HCC 2998 21.6 µM | HCT-116 35.4 µM | Hs-578T 18.4 µM | MDA-MB-435 2.57 µM | MDA-N 22 µM | NCI-H23 13.3 µM | RPMI-8226 > 100 µM | SF-268 25.9 µM | SF-295 19.4 µM | SK-MEL-2 15.6 µM | SK-MEL-5 14.9 µM | SN12C 35.6 µM | SNB-75 18.7 µM | SR 19.3 µM | U-251 14.4 µM | UACC-62 23.3 µM

Clc1ccc(-c2nc3cc(Cl)ccc3[nH]2)cc1
inactive: CCRF-CEM 54 µM | HCC 2998 29.8 µM | HCT-116 22.9 µM | Hs-578T 30.8 µM | MDA-MB-435 27.6 µM | MDA-N 29.1 µM | NCI-H23 27.6 µM | RPMI-8226 26.8 µM | SF-268 45.5 µM | SF-295 28.2 µM | SK-MEL-2 26.1 µM | SK-MEL-5 32.7 µM | SN12C 26.2 µM | SNB-75 40.1 µM | SR 32.7 µM | U-251 31.5 µM | UACC-62 32.7 µM

O=C1/C(=C/c2ccccc2)N=C(c2ccccc2)N1n1c(-c2ccccc2)nc2ccccc2c1=O
inactive: CCRF-CEM 32.8 µM | HCC 2998 > 100 µM | HCT-116 53 µM | Hs-578T 35.2 µM | MDA-MB-435 87.9 µM | MDA-N 54.8 µM | NCI-H23 56.1 µM | RPMI-8226 28.8 µM | SF-268 64.6 µM | SF-295 91 µM | SK-MEL-5 38 µM | SN12C > 100 µM | SNB-75 > 100 µM | SR 31 µM | U-251 41.8 µM | UACC-62 31 µM

CCO[C@@]12CCC3CC4CC[C@@](OCC)(O1)C4C32 (some centres not stated)
inactive: CCRF-CEM > 100 µM | HCC 2998 > 100 µM | HCT-116 > 100 µM | Hs-578T > 100 µM | MDA-MB-435 > 100 µM | MDA-N > 100 µM | NCI-H23 > 100 µM | RPMI-8226 > 100 µM | SF-268 > 100 µM | SF-295 > 100 µM | SK-MEL-2 > 100 µM | SK-MEL-5 > 100 µM | SN12C > 100 µM | SNB-75 > 100 µM | SR > 100 µM | U-251 > 100 µM | UACC-62 > 100 µM

COc1ccc(C[C@H]2C(=O)O[C@H](C)[C@H](NC(=O)[C@@H](CC(C)C)C(C)C(=O)C3CCCN3C(=O)[C@H](C)O)C(=O)Nc3cccc(c3OC)C(=O)O[C@@H](C(C)C)C(=O)[C@H](C)C(=O)N[C@@H](CC(C)C)C(=O)N3CCC[C@H]3C(=O)N2C)cc1 (some centres not stated) (H-[Lac][X57]T[X58]LP[NMeY](Me); ester 3-C)
inactive: HCC 2998 3.82 µM | HCT-116 6.12 µM | Hs-578T > 12.5 µM | MDA-MB-435 4.93 µM | MDA-N 10.1 µM | NCI-H23 > 12.5 µM | RPMI-8226 6.53 µM | SF-268 > 12.5 µM | SF-295 > 12.5 µM | SK-MEL-2 > 12.5 µM | SK-MEL-5 > 12.5 µM | SN12C > 12.5 µM | SNB-75 2.81 µM | SR 5.09 µM | U-251 > 12.5 µM | UACC-62 > 12.5 µM
